# From the OPERA property sets (Mansouri et al. 2018)
Compound,solubility (25 °C) [mM],solubility [mM],also measured
C#CC1(OC(N)=O)CCCCC1,15,–,–
O=C(O)CCSCCC(=O)O,–,–,solubility (26 °C): 209 mM
NC1(C(=O)O)CCCC1,387,–,–
Cc1ccc(C(C)C)c(O)c1C(=O)O,–,–,solubility (20 °C): 0.515 mM
CCOc1ccc2nc3cc(N)ccc3c(N)c2c1,–,263,–
O=Cc1ccccc1O[C@@H]1O[C@H](CO)[C@@H](O)[C@H](O)[C@H]1O,–,63.3,–
CCCn1cnc2c1c(=O)n(CCCCC(C)=O)c(=O)n2C,104,–,–
O=C1CN=C(c2ccccc2Cl)c2cc([N+](=O)[O-])ccc2N1,0.317,–,–
NC(Cc1cc(Br)c(O)c(Br)c1)C(=O)O (stereo in doubt),11.8,–,–
O=C(C(Cl)Cl)N(CCO)Cc1ccc(Oc2ccc([N+](=O)[O-])cc2)cc1,–,0.00751,–
CC(=O)Nc1c(I)c(C(=O)N[C@H]2C(O)O[C@H](CO)[C@@H](O)[C@@H]2O)c(I)c(N(C)C(C)=O)c1I (stereo partly specified),634,–,–
CCCOC(=O)c1cc(O)c(O)c(O)c1,16.5,–,–
CCC1(N2CCCCC2)C(=O)NC(=O)NC1=O,–,6.98,–
NC(=S)NC(N)=S,–,–,solubility (27 °C): 20 mM
CN1C(=O)OC(C)(C)C1=O,–,349,–
Nc1ncnc2c1ncn2[C@]1(CO)O[C@H](CO)[C@@H](O)[C@H]1O,26.9,–,–
NC(=O)c1cnccn1,122,–,–
OC(CI)CI,–,40.1,–
O=C1CCC(=O)N1Cl,107,–,–
CN1C(=O)CCS(=O)(=O)C1c1ccc(Cl)cc1 (stereo unspecified),9.13,–,–
C[C@H]1O[C@H](O[C@H]2CC[C@H](n3ccc(NC(=O)c4ccc(NC(=O)[C@@](C)(N)CO)cc4)nc3=O)O[C@@H]2C)[C@H](O)[C@@H](O)[C@@H]1N(C)C,3.23,–,–

Compound,solubility (25 °C) [mM],solubility [mM],also measured
OC[C@@H](O)[C@H](O)[C@@H](O)CO,–,4220,–
CC(O)(P(=O)(O)O)P(=O)(O)O,–,–,solubility (20 °C): 3350 mM
C#CCOC(=O)/C=C(C)/C=C/CC(C)CCCC(C)C (stereo unspecified),–,0.0189,–
C=C[C@H]1C[N@@]2CC[C@H]1C[C@H]2C12Nc3ccccc3C1(O)CCO2 (stereo partly specified),–,2.14,–
CC(=O)OC(C)(C)C,71.7,–,–
NC(=O)N(CCO)/N=C/c1ccc([N+](=O)[O-])o1,–,2.06,–
O=C(OC[C@H]1O[C@@H](Oc2ccccc2CO)[C@H](O)[C@@H](O)[C@@H]1O)c1ccccc1,–,1.28,–
CC(C)(C)C(O)C(Oc1ccc(Cl)cc1)n1cncn1 (stereo unspecified),–,–,solubility (20 °C): 0.406 mM
CC(=O)c1ccc(O)c(O)c1O,–,9.51,–
CO[C@H]1O[C@H](CNC(=O)N(CCCl)N=O)[C@@H](O)[C@H](O)[C@H]1O,27.5,–,–
CCC(C)C1(CC)C(=O)N=C([O-])NC1=O.[Na+] (stereo unspecified),–,1420,–
C/C=C\C(=O)OC1C[C@H]2O[C@@H]3C=C(C)C(=O)C[C@]3(C)[C@]1(C)C21CO1 (stereo partly specified),1.2,–,–
O=C(C1CCCCC1)N1CC(=O)N2CCc3ccccc3C2C1 (stereo unspecified),–,1.28,–
CCN(CC)C(=O)CC(C)C,–,254,–
COc1c2c(cc3oc(=O)ccc13)OC(C)(C)C=C2,–,0.155,–
O=C([O-])c1ccccc1C(=O)O.[K+],–,408,–
Nc1nc(N)nc(-c2ccccc2)n1,–,–,solubility (22 °C): 3.2 mM
C[C@H](O)[C@@H](O)c1cnc2[nH]c(N)nc(=O)c2n1,–,–,solubility (20 °C): 2.95 mM
CC1(C)CC(=O)CC(=O)C1,29.7,–,–
CC(C[N+](C)(C)C)OC(N)=O.[Cl-] (stereo unspecified),–,3180,–
NC(=S)Nc1cccc2ccccc12,2.97,–,–

Compound,solubility (25 °C) [mM],solubility [mM],also measured
O=C(CCCN1CCC(O)(c2ccc(Cl)cc2)CC1)c1ccc(F)cc1,0.0372,–,–
CC(=O)N/N=C/c1ccc([N+](=O)[O-])o1,–,2.54,–
COc1cc([C@@H]2c3cc4c(cc3[C@H](O)[C@H]3COC(=O)[C@@H]23)OCO4)cc(OC)c1OC,0.241,–,–
CC(=O)OC[C@H]1O[C@@](COC(C)=O)(O[C@H]2O[C@H](COC(C)=O)[C@@H](OC(C)=O)[C@H](OC(C)=O)[C@H]2OC(C)=O)[C@@H](OC(C)=O)[C@@H]1OC(C)=O,–,1.34,–
NC(=O)c1cccnc1,4090,–,–
N=C(NCCCCCCNC(=N)NC(=N)Nc1ccc(Cl)cc1)NC(=N)Nc1ccc(Cl)cc1,–,–,solubility (20 °C): 1.58 mM
Clc1ncnc2[nH]cnc12,–,–,solubility (20 °C): 32.4 mM
O=C1OC(CN2CCOCC2)CN1N=Cc1ccc([N+](=O)[O-])o1 (stereo unspecified),2.31,–,–
O=C(C(=O)c1cc([N+](=O)[O-])ccc1O)c1cc([N+](=O)[O-])ccc1O,0.301,–,–
CCCC(C)(COC(N)=O)COC(=O)NC(C)C (stereo unspecified),1.15,–,–
O=C(c1ccccc1O)N1CCOCC1,–,19.8,–
COC(=O)CC(C)=O,–,4310,–
CN1CCN(C(c2ccccc2)c2ccccc2)CC1,< 3.75,–,–
CCC(C)(CC)OC(N)=O,–,27.5,–
COCc1ccc([N+](=O)[O-])o1,–,70,–
CC(C)(C)OOC(C)(C)C,–,0.684,–
O=C[C@H](O)C(O)[C@H](O)CO (stereo in doubt),–,3700,–
Nc1ccc(S(=O)(=O)O)c2ccc(S(=O)(=O)O)cc12,–,22.8,–
CC(O)C(Cl)(Cl)Cl (stereo unspecified),–,175,–
